Assay results taken from patent US20150283270A1, “MODELING ANTI-LEUKEMIC THERAPY BY PATIENT DERIVED AML XENOGRAFTS WITH DISTINCT PHENOTYPES/GENOTYPES” (Crown Bioscience Inc., priority 2014, published 2015).
“Also recorded” adds a separate entry of the source.

Test system: AM7577 leukemic cells (hCD45+)
Experiment: Evaluation of anti-leukemia activity of a therapeutic in AM7577-mice (AML patient derived xenograft)
Format: in vivo, NOD/SCID mice
Conditions: for Inhibition of leukemia in blood: FIG. 4 legend; for Leukemic load in peripheral blood (hCD45+): 5-day-on/2-day-off, starting 15 days post-engraftment
Experimental: Animal experiments were conducted at Crown Bioscience's laboratory, China. The transplantation recipient NOD/SCID mice were purchased from Beijing HFK Bioscience at between 3-4 weeks of age. The Institutional Animal Care and Use Committee (IACUC) of Crown Bioscience approved animal study protocols. All procedures were under sterile conditions at Crown Bioscience's SPF facility and conducted in strict accordance with the Guide for the Care and Use of Laboratory Animals of the National Institutes of Health. Ficoll® column isolated MNCs were injected into the tail-vein of 4-week old, sub lethally irradiated NOD/SCID mice ([…]), followed by weekly monitoring for peripheral appearance of leukemic cells (CD45^+) via retro-orbital bleeding and flow analysis. Briefly, ˜50 μL blood was collected into anticoagulative tubes (BD 365974, Becton Dickinson and Co., Franklin Lakes, N.J.). After lysis of red blood cells the cells were stained with 20 μL mouse anti-human CD45 antibody (Biolegend, CA) and incubated on ice for 30 minutes in the dark followed by washing with cold PBS. The cells were resuspended in150 μL PBS and subjected to FACS analysis.
Fifteen days post-engraftment, mice were administered different doses of cytarabine (AraC). Mouse blood was collected by retro-orbital bleed and human CD45^+ cells were quantified weekly by flow cytometry. Body weight and clinical signs were also monitored twice weekly. When mice became morbid due to full-blown leukemia, the animals were sacrificed, followed by gross and microscopic examinations. Major relevant organs (bone marrow, spleen, blood, liver, lymph nodes, etc.) were examined and harvested for further analysis, including IHC (method described previously, Yang, M. et al., Int J Cancer. 2012; Sep. 5. doi: 10.1002/ijc.27813) and immunological phenotyping of the leukemia cells by FACS.
Cytarabine (AraC) is the current standard chemotherapy agent for induction therapy of AML, including AML-M5. We tested AraC anti-leukemic activity against AM7577, by subjecting AM7577-mice to a 5-day-on/2-day-off Ara-C dosing regimen, starting 15 days post-engraftment.
We subsequently explored whether AraC treatment actually cured the disease by withdrawing treatment. The result was rapid relapse just a few days post-treatment withdrawal (FIG. 3A). This observation can potentially be interpreted as AraC has only affected leukemic blasts, but has no affect on LICs.

## CC(C)(C)c1cc(NC(=O)Nc2ccc(-c3cn4c(n3)sc3cc(OCCN5CCOCC5)ccc34)cc2)no1 [AC220]
  Inhibition of leukemia in blood: Inhibition

## Nc1ccn([C@@H]2O[C@H](CO)[C@@H](O)[C@@H]2O)c(=O)n1 [AraC, Cytarabine]
3 mg/kg
  Leukemic load in peripheral blood (hCD45+): no detectable leukemic load
10 mg/kg
  Leukemic load in peripheral blood (hCD45+): no detectable leukemic load
AM7577-mice, after treatment withdrawal
  Relapse after drug withdrawal: rapidly relapsed; also recorded: rapid relapse
AML mouse model AM7577
  Treatment & response: complete remission
Second dosing period after relapse
  Leukemic blasts in peripheral blood on resuming treatment after withdrawal: effectively re-suppressed
Under treatment vs vehicle group
  Survival of AM7577-mice: extended life; also recorded: extended AM7577-mice survival times

## CNC(=O)c1cc(Oc2ccc(NC(=O)Nc3ccc(Cl)c(C(F)(F)F)c3)cc2)ccn1 [sorafenib]
  Inhibition of leukemia in blood: Inhibition
